Measured values reported in US20050020654A1, “Novel PPAR agonists, pharmaceutical compositions and uses thereof” (priority 2003, published 2005).
Read-outs that look alike come from different tables or passages of the source. Values belong to the compound of their own block, whether it stands above or below them.

Experiments:
PPARγ [1] = target: T1, PPARγ (Homo sapiens, UniProt P37231); assay: PPARγ transactivation assay (luciferase reporter) in transfected CV-1 cells; type: cell-based
T1 construct: expressed in transfected cells; host or cells: CV-1 cells (ATCC CCL-70)
T1 sequence (P37231 1-505): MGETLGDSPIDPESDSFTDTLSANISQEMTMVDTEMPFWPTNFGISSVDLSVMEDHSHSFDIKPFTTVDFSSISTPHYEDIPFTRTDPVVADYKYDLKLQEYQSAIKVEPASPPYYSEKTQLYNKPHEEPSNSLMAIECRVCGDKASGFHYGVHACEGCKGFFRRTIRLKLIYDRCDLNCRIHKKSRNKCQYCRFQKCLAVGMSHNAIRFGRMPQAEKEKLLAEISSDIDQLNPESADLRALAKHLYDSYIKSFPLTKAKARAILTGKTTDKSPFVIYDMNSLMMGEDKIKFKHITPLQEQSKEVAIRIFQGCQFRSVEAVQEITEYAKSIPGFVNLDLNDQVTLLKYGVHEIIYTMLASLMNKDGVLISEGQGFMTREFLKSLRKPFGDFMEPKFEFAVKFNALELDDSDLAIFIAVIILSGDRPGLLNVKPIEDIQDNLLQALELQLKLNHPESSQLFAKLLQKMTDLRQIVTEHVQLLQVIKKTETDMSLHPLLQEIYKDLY
Procedure: PPARγ activity was determined by transactivation assays in CV-1 cells (CCL-70 line from American Type Culture Collection (ATCC), Bethesda, Md.) transfected using the GenePorter transfection reagent (Gene Therapy Systems, San Diego, Calif.) to deliver 200 ng of a PPARγ expression plasmid and 1 μg of a luciferase reporter plasmid and 400 ng pCMVSport b-gal (Gibco, Grand Island, N.J.) as an internal control. 24 hr post-transfection, cells were treated with varying concentrations of the test compounds of this invention, and incubated for an additional 24 hr. Rosiglitazone and pioglitazone, a known PPARγ full agonist, and telmisartan, a known ARB and PPARγ partial agonist (Benson et al. Hypertension (2004) in press) are used as controls. Cell extracts were assayed for luciferase and β-galactosidase activity using Promega (Madison, Wis.) assay systems. All treatments were performed in triplicate, and normalized for β-galactosidase activity. Agonist concentrations yielding half maximal activation (EC50 values) were calculated using GraphPad Prism version 3.03 (GraphPad Software, Inc., San Diego, Calif.).

PPARγ [2] = target: T1, PPARγ; settings: Benson et al. Hypertension (2004) in press; cited from earlier work
[3] = type: in vivo, human
Procedure: A person with hypertension, hypertriglyceridemia, and type 2 diabetes was selected for therapy. […] The patient is taking another medication for type 2 diabetes but the dose of this medication is held constant throughout the trial. The patient is given telmisartan at an oral dose of 80 mg/day. […] The oral dose of telmisartan (Micardis®) is then increased to 160 mg/day. […] The telmisartan (Micardis®) therapy is continued according to the judgment of the clinician in order to maintain the improved control of the patient's blood pressure and their type 2 diabetes.

[4] = type: in vivo
Procedure: An obese person (BMI: 34.4 kg/m2, waist circumference: 51 inches) with untreated hypertension, pre-diabetes and the metabolic syndrome was given telmisartan (Micardis®), 80 mg/day, for treatment of high blood pressure. […] The patient has the metabolic syndrome as defined by the National Cholesterol Education Program (NCEP). The metabolic syndrome is associated with a 5-9 fold increase in the risk for developing type 2 diabetes and a 2-3 fold increase risk in cardiovascular mortality. […] After 5 weeks on valsartan (week 15), their glucose, insulin, triglyceride levels, and HOMA-IR score increased, consistent with a reversal in the improved insulin resistance obtained with telmisartan (Table 1). Valsartan was discontinued and they were switched back to telmisartan.

[5] = oral 80 mg/day, after three weeks
[6] = oral 160 mg/day, after seven weeks

Compound: CCCc1nc2c(C)cc(Br)cc2n1CCOc1ccc(CC2SC(=O)NC2=O)cc1C(=O)O (stereo not drawn) [2-(2-(6-Bromo-4-methyl-2-propyl-1H-benzo[d]imidazol-1-yl)ethoxy)-5-((2,4-dioxothiazolidin-5-yl)methyl)benzoic acid]
- PPAR-γ Fold activation (PPARγ [1]; @ 0.1 uM): 3.8 x
- PPAR-γ Fold activation (PPARγ [1]; @ 1 μM): 10 x
- PPAR-γ Fold activation (PPARγ [1]; @ 10 μM): 15.5 x
- PPAR-γ Fold activation (PPARγ [1]; @ .01 uM): 1.7 x

Compound: CCCCC1=NC2(CCCC2)C(=O)N1Cc1ccc(-c2ccccc2-c2nnn[nH]2)cc1 [Irbesartan, reference compound]
- PPARγ activation (PPARγ [1]): 2-3 fold

Compound: COC(=O)c1cc(CC2SC(=O)NC2=O)ccc1OCCn1c(CCCCC2CCCCC2)nc2ccccc21 (stereo not drawn) [Methyl 2-(2-(2-(4-cyclohexylbutyl)-1H-benzo[d]imidazol-1-yl)ethoxy)-5-((2,4-dioxothiazolidin-5-yl)methyl)benzoate]
- PPAR-γ Fold activation (PPARγ [1]; @ 0.1 uM): 2 x
- PPAR-γ Fold activation (PPARγ [1]; @ 1 μM): 24 x
- PPAR-γ Fold activation (PPARγ [1]; @ 10 μM): 34 x
- PPAR-γ Fold activation (PPARγ [1]; @ .01 uM): 1 x

Compound: CCCc1nc2c(C)cc(-c3nc4ccccc4n3C)cc2n1Cc1ccc(-c2ccc(C(=O)OC)cc2C(=O)OC)cc1 [proaverysartan]
- PPAR-γ Fold activation (PPARγ [1]; @ 0.1 uM): 1 x
- PPAR-γ Fold activation (PPARγ [1]; @ 1 μM): 5 x
- PPAR-γ Fold activation (PPARγ [1]; @ 5 uM): 9 x
- PPAR-γ Fold activation (PPARγ [1]; @ 10 μM): 11 x

Compound: CCCc1nc2c(C)cc(-c3nc4ccccc4n3C)cc2n1Cc1ccc(-c2ccccc2C(=O)O)cc1 [telmisartan]
- activation of PPARγ (PPARγ [2]): has been shown to activate PPARγ
- HDL cholesterol [3, 5]: 50 mg/dL
- blood pressure [3, 5]: 143/91
- fasting glucose [3, 5]: 188 mg/dL
- triglyceride [3, 5]: 281 mg/dL
- HDL cholesterol [3, 6]: 60 mg/dL
- blood pressure [3, 6]: 131/81
- glucose level [3, 6]: 145 mg/dL
- triglyceride level [3, 6]: 178 mg/dL
- activation of the receptor relative to maximum level of activity achieved by the full agonists pioglitazone and rosiglitazone (PPARγ [1]): 25%-30%
- PPARγ activation (PPARγ [1]; tested at concentrations 1-5 mM): 5-8 fold
- blood pressure ([4]; 80 mg/day, throughout the observation period): normalized and remained normal
- blood glucose, insulin and triglyceride concentrations ([4]; 80 mg/day, up to week 10): progressively decreased
- insulin resistance, HOMA-IR score ([4]; 80 mg/day, up to week 10): improvement in insulin resistance
- fluid retention, peripheral edema, pulmonary edema, or congestive heart failure on clinical examination ([4]; human, in vivo): no evidence of any increase
- insulin resistance and triglycerides ([4]; switched back from valsartan, following 4 weeks (week 19)): again improved

Compound: CCCCC(=O)N(Cc1ccc(-c2ccccc2-c2nnn[nH]2)cc1)[C@H](C(=O)O)C(C)C [valsartan]
- activation of PPARγ (PPARγ [2]): does not activate PPARγ
- glucose, insulin, triglyceride levels, and HOMA-IR score ([4]; 160 mg/day, after 5 weeks (week 15), after switch from telmisartan): increased

More lines, now with the values ahead:

- PPAR-γ Fold activation (PPARγ [1]; @ 0.1 uM): 3.1 x
- PPAR-γ Fold activation (PPARγ [1]; @ 1 μM): 32 x
- PPAR-γ Fold activation (PPARγ [1]; @ 10 μM): 41 x
- PPAR-γ Fold activation (PPARγ [1]; @ .01 uM): 1 x
Compound: CCCc1nc2c(C)cc(Br)cc2n1CCOc1ccc(CC2SC(=O)NC2=O)cc1C(=O)OC (stereo not drawn) [Methyl 2-(2-(6-bromo-4-methyl-2-propyl-1H-benzo[d]imidazol-1-yl)ethoxy)-5-((2,4-dioxothiazolidin-5-yl)methyl)benzoate]

- PPAR-γ Fold activation (PPARγ [1]; concentration not given): No activity
Compound: CCCc1nc2c(C)cc(-c3nc4ccccc4n3C)cc2n1Cc1ccc(-c2ccc(C(=O)O)cc2C(=O)O)cc1 [averysartan]

- PPAR-γ Fold activation (PPARγ [1]; @ 0.1 uM): 1.2 x
- PPAR-γ Fold activation (PPARγ [1]; @ 1 μM): 6.1 x
- PPAR-γ Fold activation (PPARγ [1]; @ 10 μM): 7.4 x
Compound: Methyl 5-((2,4-dioxothiazolidin-5-yl)methyl)-2-(2-(4-methyl-6-phenyl-2-propyl-1H-benzo[d]imidazol-1-yl)ethoxy)benzoate
